Measured values: ChEMBL document CHEMBL3862012, “Methylene versus carbonyl bridge in the structure of new tubulin polymerization inhibitors with tricyclic A-rings” (Bioorg Med Chem, 2016)

Test system: not listed separately
Assay: Cytotoxicity against human ACHN cells assessed as growth inhibition at 10 uM after 48 hrs by SRB assay relative to control
Type: functional
Conditions: read-out: GI

Q: For COc1ccc(CN2c3ccccc3Oc3ccccc32)cc1F, which inhibition of growth at 10 µM is on record?
A: 19%

Test system: not listed separately
Assay: Cytotoxicity against human Hs 578T cells assessed as growth inhibition at 10 uM after 48 hrs by SRB assay relative to control
Type: functional
Conditions: read-out: GI

Q: With COc1ccc(CN2c3ccccc3Oc3ccccc32)cc1F as the compound, how does the inhibition of growth at 10 µM read?
A: 38%

Test system: not listed separately
Assay: Cytotoxicity against human PC3 cells assessed as growth inhibition at 10 uM after 48 hrs by SRB assay relative to control
Type: functional
Conditions: PC-3, 48 h, read-out: GI

Q: With COc1ccc(CN2c3ccccc3Oc3ccccc32)cc1F as the compound, how does the inhibition of growth at 10 µM read?
A: 35%

Test system: not listed separately
Assay: Cytotoxicity against human NCI-H460 cells assessed as growth inhibition at 10 uM after 48 hrs by SRB assay relative to control
Type: functional
Conditions: NCI-H460, 48 h, read-out: GI

Q: Which inhibition of growth at 10 µM does the source give for COc1ccc(CN2c3ccccc3Oc3ccccc32)cc1F here?
A: 52%

Test system: not listed separately
Assay: Cytotoxicity against human MDA-MB-435 cells assessed as growth inhibition at 10 uM after 48 hrs by SRB assay relative to control
Type: functional
Conditions: MDA-MB-435, 48 h, read-out: GI

Q: With COc1ccc(CN2c3ccccc3Oc3ccccc32)cc1F as the compound, how does the inhibition of growth at 10 µM read?
A: 100%

Test system: not listed separately
Assay: Cytotoxicity against human MCF7 cells assessed as growth inhibition at 10 uM after 48 hrs by SRB assay relative to control
Type: functional
Conditions: MCF7, 48 h, read-out: GI

Q: With COc1ccc(CN2c3ccccc3Oc3ccccc32)cc1F as the compound, how does the inhibition of growth at 10 µM read?
A: 57%

Test system: not listed separately
Assay: Cytotoxicity against human U251 cells assessed as growth inhibition at 10 uM after 48 hrs by SRB assay relative to control
Type: functional
Conditions: U-251, 48 h, read-out: GI

Q: With COc1ccc(CN2c3ccccc3Oc3ccccc32)cc1F as the compound, how does the inhibition of growth at 10 µM read?
A: 60%

Test system: not listed separately
Assay: Cytotoxicity against human SNB19 cells assessed as growth inhibition at 10 uM after 48 hrs by SRB assay relative to control
Type: functional
Conditions: SNB-19, 48 h, read-out: GI

Q: With COc1ccc(CN2c3ccccc3Oc3ccccc32)cc1F as the compound, how does the inhibition of growth at 10 µM read?
A: 32%

Test system: not listed separately
Assay: Cytotoxicity against human COLO205 cells assessed as growth inhibition at 10 uM after 48 hrs by SRB assay relative to control
Type: functional
Conditions: COLO 205, 48 h, read-out: GI

Q: For COc1ccc(CN2c3ccccc3Oc3ccccc32)cc1F, which inhibition of growth at 10 µM is on record?
A: 58%

Test system: not listed separately
Assay: Cytotoxicity against human CCRF-CEM cells assessed as growth inhibition at 10 uM after 48 hrs by SRB assay relative to control
Type: functional
Conditions: read-out: GI

Q: For COc1ccc(CN2c3ccccc3Oc3ccccc32)cc1F, which inhibition of growth at 10 µM is on record?
A: 33%

Test system: not listed separately
Assay: Cytotoxicity against human MDA-MB-468 cells assessed as growth inhibition at 10 uM after 48 hrs by SRB assay relative to control
Type: functional
Conditions: MDA-MB-468, 48 h, read-out: GI

Q: With COc1ccc(CN2c3ccccc3Oc3ccccc32)cc1F as the compound, how does the inhibition of growth at 10 µM read?
A: 56%

Test system: not listed separately
Assay: Cytotoxicity against human OVCAR3 cells assessed as growth inhibition at 10 uM after 48 hrs by SRB assay relative to control
Type: functional
Conditions: OVCAR-3, 48 h, read-out: GI

Q: Which inhibition of growth at 10 µM does the source give for COc1ccc(CN2c3ccccc3Oc3ccccc32)cc1F here?
A: 57%

Test system: not listed separately
Assay: Cytotoxicity against human UO31 cells assessed as growth inhibition at 10 uM after 48 hrs by SRB assay relative to control
Type: functional
Conditions: UO-31, 48 h, read-out: GI

Q: Which inhibition of growth at 10 µM does the source give for COc1ccc(CN2c3ccccc3Oc3ccccc32)cc1F here?
A: 47%

Test system: not listed separately
Assay: Cytotoxicity against human SW620 cells assessed as growth inhibition at 10 uM after 48 hrs by SRB assay relative to control
Type: functional
Conditions: SW-620, 48 h, read-out: GI

Q: Which inhibition of growth at 10 µM does the source give for COc1ccc(CN2c3ccccc3Oc3ccccc32)cc1F here?
A: 66%

Test system: not listed separately
Assay: Cytotoxicity against human UACC257 cells assessed as growth inhibition at 10 uM after 48 hrs by SRB assay relative to control
Type: functional
Conditions: UACC-257, 48 h, read-out: GI

Q: For COc1ccc(CN2c3ccccc3Oc3ccccc32)cc1F, which inhibition of growth at 10 µM is on record?
A: 41%

Test system: not listed separately
Assay: Cytotoxicity against human T47D cells assessed as growth inhibition at 10 uM after 48 hrs by SRB assay relative to control
Type: functional
Conditions: read-out: GI

Q: With COc1ccc(CN2c3ccccc3Oc3ccccc32)cc1F as the compound, how does the inhibition of growth at 10 µM read?
A: 42%

Test system: not listed separately
Assay: Cytotoxicity against human NCI-H522 cells assessed as growth inhibition at 10 uM after 48 hrs by SRB assay relative to control
Type: functional
Conditions: NCI-H522, 48 h, read-out: GI

Q: With COc1ccc(CN2c3ccccc3Oc3ccccc32)cc1F as the compound, how does the inhibition of growth at 10 µM read?
A: 100%

Test system: not listed separately
Assay: Cytotoxicity against human EKVX cells assessed as growth inhibition at 10 uM after 48 hrs by SRB assay relative to control
Type: functional
Conditions: read-out: GI

Q: Which inhibition of growth at 10 µM does the source give for COc1ccc(CN2c3ccccc3Oc3ccccc32)cc1F here?
A: 39%

Test system: not listed separately
Assay: Cytotoxicity against human HCT116 cells assessed as growth inhibition at 10 uM after 48 hrs by SRB assay relative to control
Type: functional
Conditions: HCT-116, 48 h, read-out: GI

Q: Which inhibition of growth at 10 µM does the source give for COc1ccc(CN2c3ccccc3Oc3ccccc32)cc1F here?
A: 69%

Test system: not listed separately
Assay: Cytotoxicity against human NCI-H23 cells assessed as growth inhibition at 10 uM after 48 hrs by SRB assay relative to control
Type: functional
Conditions: NCI-H23, 48 h, read-out: GI

Q: With COc1ccc(CN2c3ccccc3Oc3ccccc32)cc1F as the compound, how does the inhibition of growth at 10 µM read?
A: 28%

Organism: Ovis aries
Assay: Inhibition of sheep brain tubulin polymerization at 100 uM by DAPI staining-based fluorimetric method relative to control
Conditions: not given

Q: For COc1ccc(CN2c3ccccc3Oc3ccccc32)cc1F, which inhibition is on record?
A: 1%

Test system: not listed separately
Assay: Cytotoxicity against human MALME-3M cells assessed as growth inhibition at 10 uM after 48 hrs by SRB assay relative to control
Type: functional
Conditions: read-out: GI

Q: Which inhibition of growth at 10 µM does the source give for COc1ccc(CN2c3ccccc3Oc3ccccc32)cc1F here?
A: 41%

Test system: not listed separately
Assay: Cytotoxicity against human M14 cells assessed as growth inhibition at 10 uM after 48 hrs by SRB assay relative to control
Type: functional
Conditions: M14, 48 h, read-out: GI

Q: For COc1ccc(CN2c3ccccc3Oc3ccccc32)cc1F, which inhibition of growth at 10 µM is on record?
A: 66%

Test system: not listed separately
Assay: Cytotoxicity against human A549 cells assessed as growth inhibition at 10 uM after 48 hrs by SRB assay relative to control
Type: functional
Conditions: A549, 48 h, read-out: GI

Q: For COc1ccc(CN2c3ccccc3Oc3ccccc32)cc1F, which inhibition of growth at 10 µM is on record?
A: 56%

Test system: not listed separately
Assay: Cytotoxicity against human NCI-ADR-RES cells assessed as growth inhibition at 10 uM after 48 hrs by SRB assay relative to control
Type: functional
Conditions: read-out: GI

Q: Which inhibition of growth at 10 µM does the source give for COc1ccc(CN2c3ccccc3Oc3ccccc32)cc1F here?
A: 59%

Test system: not listed separately
Assay: Cytotoxicity against human SF268 cells assessed as growth inhibition at 10 uM after 48 hrs by SRB assay relative to control
Type: functional
Conditions: SF-268, 48 h, read-out: GI

Q: For COc1ccc(CN2c3ccccc3Oc3ccccc32)cc1F, which inhibition of growth at 10 µM is on record?
A: 15%

Test system: not listed separately
Assay: Cytotoxicity against human 786-0 cells assessed as growth inhibition at 10 uM after 48 hrs by SRB assay relative to control
Type: functional
Conditions: 786-0, 48 h, read-out: GI

Q: With COc1ccc(CN2c3ccccc3Oc3ccccc32)cc1F as the compound, how does the inhibition of growth at 10 µM read?
A: 21%

Test system: not listed separately
Assay: Cytotoxicity against human OVCAR5 cells assessed as growth inhibition at 10 uM after 48 hrs by SRB assay relative to control
Type: functional
Conditions: OVCAR-5, 48 h, read-out: GI

Q: For COc1ccc(CN2c3ccccc3Oc3ccccc32)cc1F, which inhibition of growth at 10 µM is on record?
A: 13%

Test system: not listed separately
Assay: Cytotoxicity against human RPMI8226 cells assessed as growth inhibition at 10 uM after 48 hrs by SRB assay relative to control
Type: functional
Conditions: RPMI-8226, 48 h, read-out: GI

Q: With COc1ccc(CN2c3ccccc3Oc3ccccc32)cc1F as the compound, how does the inhibition of growth at 10 µM read?
A: 39%

Test system: not listed separately
Assay: Cytotoxicity against human HT-29 cells assessed as growth inhibition at 10 uM after 48 hrs by SRB assay relative to control
Type: functional
Conditions: HT-29, 48 h, read-out: GI

Q: Which inhibition of growth at 10 µM does the source give for COc1ccc(CN2c3ccccc3Oc3ccccc32)cc1F here?
A: 89%

Test system: not listed separately
Assay: Cytotoxicity against human NCI-H322M cells assessed as growth inhibition at 10 uM after 48 hrs by SRB assay relative to control
Type: functional
Conditions: read-out: GI

Q: For COc1ccc(CN2c3ccccc3Oc3ccccc32)cc1F, which inhibition of growth at 10 µM is on record?
A: 8%

Test system: not listed separately
Assay: Cytotoxicity against human RXF393 cells assessed as growth inhibition at 10 uM after 48 hrs by SRB assay relative to control
Type: functional
Conditions: RXF 393, 48 h, read-out: GI

Q: With COc1ccc(CN2c3ccccc3Oc3ccccc32)cc1F as the compound, how does the inhibition of growth at 10 µM read?
A: 16%

Test system: not listed separately
Assay: Cytotoxicity against human OVCAR4 cells assessed as growth inhibition at 10 uM after 48 hrs by SRB assay relative to control
Type: functional
Conditions: OVCAR-4, 48 h, read-out: GI

Q: For COc1ccc(CN2c3ccccc3Oc3ccccc32)cc1F, which inhibition of growth at 10 µM is on record?
A: 28%

Test system: not listed separately
Assay: Cytotoxicity against human HCT15 cells assessed as growth inhibition at 10 uM after 48 hrs by SRB assay relative to control
Type: functional
Conditions: HCT-15, 48 h, read-out: GI

Q: With COc1ccc(CN2c3ccccc3Oc3ccccc32)cc1F as the compound, how does the inhibition of growth at 10 µM read?
A: 53%

Test system: not listed separately
Assay: Cytotoxicity against human HL-60(TB) cells assessed as growth inhibition at 10 uM after 48 hrs by SRB assay relative to control
Type: functional
Conditions: HL-60, 48 h, read-out: GI

Q: Which inhibition of growth at 10 µM does the source give for COc1ccc(CN2c3ccccc3Oc3ccccc32)cc1F here?
A: 46%

Test system: not listed separately
Assay: Cytotoxicity against human SK-MEL-2 cells assessed as growth inhibition at 10 uM after 48 hrs by SRB assay relative to control
Type: functional
Conditions: SK-MEL-2, 48 h, read-out: GI

Q: Which inhibition of growth at 10 µM does the source give for COc1ccc(CN2c3ccccc3Oc3ccccc32)cc1F here?
A: 90%

Test system: not listed separately
Assay: Cytotoxicity against human KM12 cells assessed as growth inhibition at 10 uM after 48 hrs by SRB assay relative to control
Type: functional
Conditions: KM12, 48 h, read-out: GI

Q: With COc1ccc(CN2c3ccccc3Oc3ccccc32)cc1F as the compound, how does the inhibition of growth at 10 µM read?
A: 59%

Test system: not listed separately
Assay: Cytotoxicity against human MOLT4 cells assessed as growth inhibition at 10 uM after 48 hrs by SRB assay relative to control
Type: functional
Conditions: MOLT-4, 48 h, read-out: GI

Q: With COc1ccc(CN2c3ccccc3Oc3ccccc32)cc1F as the compound, how does the inhibition of growth at 10 µM read?
A: 58%
